Data on two compounds can be found in patent publication US20180064729A1, “Treatment of Pulmonary Disease” (Intercept Pharmaceuticals, Inc., priority 2012, published 2018).

The structures appear in SMILES notation. “Also recorded” adds a separate entry of the source.

Series [1] has as its system small pulmonary arteries. As to the kind of experiment: MCT-induced pulmonary hypertensive rat model: pulmonary artery wall thickness. The settings on record: for MCT-induced increase in wall thickness (WT): OCA 30 mg/kg oral, p<0.00001; for wall thickness (WT) in small pulmonary arteries: MCT 60 mg/kg s.c. alone. It counts as in vivo. The method, then: (§1) Pulmonary hypertension was induced by subcutaneous injection of 60 mg/kg monocrotaline (MCT) (Sigma Chemicals, St. Louis, Mo., USA) dissolved in 0.5 N HCl solution. Briefly, male Sprague-Dawley (SD) rats, weighing between 200 to 250 g, were housed in climate-controlled conditions with a 12 hours light:12 hours dark cycle, with free access to chow and water. SD rats were randomly allocated to the following groups: • 1) SD rats left untreated and sacrificed after 7 (n=5) or 28 (n=5) days; • 2) SD rats receiving a single subcutaneous injection of vehicle MCT sacrificed after 7 days (n=5); • 3) SD rats receiving a single subcutaneous injection of vehicle MCT sacrificed after 28 days (n=10); • 4) SD rats receiving a single subcutaneous injection of MCT [60 mg/kg, n=5] sacrificed after 7 days; • 5) SD rats receiving single subcutaneous injection of MCT [60 mg/kg, n=15] sacrificed after 28 days; • 6) SD rats receiving single subcutaneous injection of MCT [60 mg/kg] and immediately treated with OCA (30 mg/kg, daily 5 days a week, by oral gavage, n=5) for 7 days]; • 7) SD rats receiving single subcutaneous injection of MCT [60 mg/kg] and immediately treated with OCA (30 mg/kg, daily 5 days a week, by oral gavage, n=10) for 28 days]; • 8) SD rats receiving single subcutaneous injection of MCT [60 mg/kg] and immediately treated with tadalafil (10 mg/kg/day, in drinking water, n=5) for 7 days]; • 9) SD rats receiving single subcutaneous injection of MCT [60 mg/kg] and immediately treated with tadalafil (10 mg/kg/day, in drinking water, n=10) for 28 days]; • 10) SD rats receiving single subcutaneous injection of MCT [60 mg/kg] and immediately treated with vehicle OCA (by oral gavage, n=5) for 7 days; • 11) SD rats receiving single subcutaneous injection of MCT [60 mg/kg] and immediately treated with vehicle OCA (by oral gavage, n=10) for 28 days.
Pulmonary vascular remodeling was evaluated by determining wall thickness (WT). Lungs were fixed in 10% buffered formalin and embedded in paraffin, then sectioned at a thickness of 5 μm and stained with hematoxylin-eosin. Ten pulmonary arteries were examined for structural integrity using a morphometric image analysis system independently by two pathologists who were blinded to animal grouping. WT, vessel diameter (ED), were determined. WT(%)=(2×WT/ED)×100%. More than 50 images of pulmonary arterioles (25 to 100 μm diameters) from at least three tissue sections at a magnification of ×20 were captured using amicroscopic digital camera and analyzed using an image analysisprogram (Fiji-win32). The external diameter (D) and medial thickness oneither side (M1 and M2) were measured along the shortest diameter. The medial wall thickness was expressed as follows: % wall thickness=[(M1+M2)/2/D]×100.

Series [2] has as its system DSS (Dahl salt-sensitive) rat. As to the kind of experiment: Dahl salt-sensitive (DSS) rat high salt diet study. It is filed as in vivo. An excerpt:
The rodent model for salt-sensitive hypertension was a DSS (Dahl salt-sensitive) rat (e.g., Rapp). […] Specifically, the rodent models used for the study were male 4-week old DSS rats (e.g., SS/JrHsd) from Harlan Laboratories. The normal diet of the DSS rats was 0.49% NaCl and the high salt diet was 8% NaCl (e.g., Teklad Custom Research Diet). The rats were divided into four groups (herein referred to as DSS study rats): • Group 1; Normal salt diet (1% Methylcellulose) (N=6) • Group 2; High-salt diet (Vehicle; 1% MC) (N=9) • Group 3; High-salt diet (6ECDCA 10mg/kg/day) (N=6) • Group 4; High-salt diet (6ECDCA 30mg/kg/day) (N=9)
The following analyses were carried out: ADMA and NO levels in serum and urine and tissues (e.g., liver, muscle and kidney), blood pressure and heart rate, fasting blood glucose and insulin (HOMA-IR), ipGTT (IR-index), and urinary protein and creatinine. Additional studies such as electrolytes (Na+), histological analysis and TGFbeta expression in kidney, DDAH expression and activity in liver, skeletal muscle and kidney, and Akt-phosphorylation level in liver, skeletal muscle and kidney can also be carried out.
6ECDCA was administered orally daily for 6-weeks. Blood and urine collections were performed at week 0 and week 6 and analyzed by methods known in the art. Blood pressure measurement was performed at week 0, 1, 2, 4 and 6 by tail cuff devices, which was performed on conscious models and was non-invasive. The blood pressure was also obtained via catheter, which was performed when the model was sacrificed. The glucose challenge test was performed at week 5. Renal function was analyzed by measuring the urinary volume, protein and creatinine in a 24 h-urine sample. Histological analysis was performed using the Masson&Trichrome staining. Insulin resistance was analyzed using the ipGTT test and the HOMA/IR index. The ADMA and NO levels were detected in blood concentration and urinary excretion (FIG. 1).

The subject of series [3] is Sprague-Dawley (SD) rats. Briefly: MCT-induced pulmonary hypertensive rat model: survival (Kaplan-Meier). It counts as in vivo. As to conditions: MCT-treated rats, study period 28 days. The method, then:
(§2) Pulmonary hypertension was induced by subcutaneous injection of 60 mg/kg monocrotaline (MCT) (Sigma Chemicals, St. Louis, Mo., USA) dissolved in 0.5 N HCl solution. Briefly, male Sprague-Dawley (SD) rats, weighing between 200 to 250 g, were housed in climate-controlled conditions with a 12 hours light:12 hours dark cycle, with free access to chow and water. […]
During the study period, the animals were observed daily for mortality, and median survival time in each group was calculated with Kaplan-Meier analysis.

In series [4] the test system is murine lung fibroblast cell line (ATCC number CCL-206). Briefly: Col I and CXCL12 expression in stimulated lung fibroblasts (qRT-PCR, ELISA, Sircol). It is filed as cell-based. The settings on record: 24 hours. The method, then: FXR activation reduced the production of collagen I and […] by resident fibroblasts. Specifically, after a 24 hour period of starving, cells from the murine lung fibroblast cell line (ATCC number CCL-206) were stimulated with or without TGFβ1 (10 ng/ml) and 6ECDCA (10 μM) for 24 hours and then the FXR, SHP and Col I gene expression was analyzed by qRT-PCR. After a 24 hours period of starving, cells from the murine lung fibroblast cell line (ATCC number CCL-206) were stimulated with or without TNFα (10 ng/ml) and 6ECDCA (10 μM) for 24 hours and then the FXR, SHP and CXCL12 gene expression was analyzed by qRT-PCR.
The downregulation of Col I and CXCL12 induced by 6ECDCA was FXR-mediated. After an overnight period of starving, murine lung fibroblast cell line (ATCC number CCL-206) was stimulated with or without TGFβ1 (10 ng/ml) and 6ECDCA (1 μM) for 24 hours—with and without block of the FXR by siRNA—and then the FXR, SHP, Col I and CXCL12 gene expression was analyzed by qRT-PCR. CXCL12 and Col I secretion in the supernatants was analyzed by ELISA and the Sircol collagen assay, respectively.
The downreguation of Col I and CXCL12 induced by 6ECDCA was SHP-mediated. Specifically, transfection of pulmonary fibroblasts with vector carrying the HA-SHP chimera was carried out to induce a SHP overexpression (WB analysis of the HA-SHP expression). Col I and CXCL12 expression (by qRT-PCR) was analyzed at baseline and after stimulation with TGFβ1. SHP overexpression was sufficient to down-regulate the Col I and CXCL12 expression, basically and after stimulation with TGFβ1.
After an overnight period of starving, murine lung fibroblast cell line (ATCC number CCL-206) were stimulated with/without TGFβ1 (10 ng/ml) and 6ECDCA (1 μM) for 24 hours—with and without block of the SHP by siRNA—and then the FXR, SHP, Col I and CXCL12 gene expression was analyzed by qRT-PCR. CXCL12 and Col I secretion in the supernatants was analyzed by ELISA and the Sircol collagen assay, respectively.
(Quantitative PCR measures a nucleic acid by following its amplification.)

The test system of series [5] is C57B1/6 wild-type and FXR−/− mice. Briefly: murine bleomycin-induced pulmonary fibrosis model. It is filed as in vivo. As to conditions: bleomycin day 0; 5 mg/kg daily; 22 days. The method, then: The murine model of bleomycin-induced pulmunary fibrosis was induced in C57B1/6 wild-type and FXR^−/− mice (females, 6-8 weeks old). Groups of treatment included: • WT mice: A—saline (day 0); B—bleomycin (day 0); C—bleomycin (day 0)- • Compound 1 (also referred to as 6ECDCA) (5 mg/kg, daily) • FXR^−/− mice: D—saline (day 0); E—bleomycin (day 0); F—bleomycin (day 0) • Compound 1 (also referred to as 6ECDCA) (5 mg/kg, daily).
After 22 days, the mice were sacrified and the subsequent analyses were performed: (1) H&E and […] staining on lung sections; (2) Quantification of collagen I into the lung by qRT-PCR and Sircol collagen assay; (3) FXR, SHP and CXCL12 mRNA quantification by qRT-PCR; and (4) CXCL12 protein quantification by ELISA on lung homogenates.

The subject of series [6] is Sprague-Dawley (SD) rats. Briefly: MCT-induced pulmonary hypertensive rat model: right ventricular hypertrophy index. It counts as in vivo. As to conditions: day 28; MCT 60 mg/kg s.c.; OCA 30 mg/kg oral gavage, tadalafil 10 mg/kg/day in drinking water. The method, then:
as §2

Series [7] deals with lung mRNA of inflammation, endothelium-proliferative and NO-signaling genes. As to the kind of experiment: MCT-induced pulmonary hypertensive rat model: lung mRNA expression by qRT-PCR. It is filed as in vivo. The method, then:
as §1
mRNA expression analysis of genes involved in inflammation [interleukin 6 (IL-6), monocyte chemoattractant protein-1 (MCP-1/CCL2), cyclooxygenase-2], endothelium-proliferative factors (vascular endothelial growth factor (VEGF) and angiotensin-converting enzyme 2 (ACE2)), NO-signaling [endothelial nitric oxide synthase (eNOS), phosphodiesterase type 5 (PDES), cyclic guanylate cyclase subunits type 1a3 and 1b3, GC1a3, GC1b3, protein kinase G 1, PKG1], were performed. Isolation of RNA from lung, qRT-PCR was performed according to the fluorescent TaqMan methodology. PCR primers and probes specific for mRNA sequences of aforementioned target genes and of the reference gene 18S rRNA was purchased from Life Technologies (Paisley, UK).

Consider `CC[C@H]1[C@@H](O)[C@@H]2[C@H](CC[C@]3(C)[C@@H]([C@H](C)CCC(=O)O)CC[C@@H]23)[C@@]2(C)CC[C@@H](O)C[C@@H]12` [Compound 1, 3α,7α-dihydroxy-6α-ethyl-5β-cholanic acid], for which the “MCT-induced increase in wall thickness (WT)” value in series [1] (day 7) is on record as “markedly reduced”. In addition, the “MCT-induced increase in wall thickness (WT)” value in series [1] (day 28) is listed as “markedly reduced”. Besides, in series [2], the “ADMA levels in serum and urine” value was “did not reduce ADMA”; the “albuminuria induced by high salt diet” value is reported as “reduced albuminuria”. In addition, the “IR-index reduction compared to the vehicle” value in series [2] (10 mg/kg) was determined as 38%. Also, the body weight entry in series [2] (10 mg/kg and 30 mg/kg, seven week study) is “did not affect the body weight”. Further, in series [2] (30 mg/kg), the “IR-index reduction compared to the vehicle” value is recorded as 21%, the “lung weight (pulmonary congestion)” value is reported as “reduced lung weight” and the renal protection result was “showed renal protection”. Besides, the heart rate result in series [2] (10 and 30 mg/kg/day oral) was “did not affect heart rate”. The blood pressure entry in series [2] (10 and 30 mg/kg/day oral, listed as 6ECDCA) is reported as “did not affect heart rate blood pressure or reduce blood pressure; also recorded: did not reduce blood pressure”. In addition, in series [2] (GTT), the glucose levels entry is “trended lower” and the insulin levels result is “trended lower”. For the same compound, the “insulin sensitivity (Insulin Resistance-Index)” value in series [2] (GTT at week 5) is on record as “reversed insulin resistance”. This compound also registered a mortality rate in series [3] of 13.2%. In addition, in series [4] (TGFβ1 10 ng/ml, 6ECDCA 1 μM, SHP overexpression / block of SHP by siRNA), the “downregulation of Col I and CXCL12, dependence on SHP” value is on record as “SHP-mediated”. Moreover, the “downregulation of Col I and CXCL12, dependence on FXR” value in series [4] (TGFβ1 10 ng/ml, 6ECDCA 1 μM, with and without block of FXR by siRNA) is given as “FXR-mediated”. The “production of collagen I by resident fibroblasts (Col I gene expression)” value in series [4] (TGFβ1 10 ng/ml, 6ECDCA 10 μM) was “reduced”. The “production of CXCR12 by resident fibroblasts (CXCL12 gene expression)” value in series [4] (TNFα 10 ng/ml, 6ECDCA 10 μM) is “reduced”. Moreover, in series [5], the pulmonary fibrosis entry is recorded as “ameliorates the pulmonary fibrosis”. Further, in series [6], the “right ventricular hypertrophy index (RVH), RV/(LV+S)” value is “completely normalized RVH”. The “PKG1 mRNA expression” value in series [7] (28-day treatment, p=0.01 vs. MCT) is given as “significantly upregulates”. Further, in series [7] (after 7 days of OCA dosing), the “GC1a3 mRNA expression” value is recorded as “significant increase”, the “PDES mRNA expression” value is recorded as “significant increase” and the “PKG1 mRNA expression” value is “significant increase”. The “MCT-induced MCP-1 expression” value in series [7] (day 7, lung) was “significantly reduced”. In series [7] (day 28, lung), the “IL-6 mRNA expression” value is reported as “significantly reduced” and the “MCT-induced MCP-1 expression” value is listed as “significantly reduced”. The “VEGF mRNA expression” value in series [7] (day 28, p=0.001 vs. MCT) is given as “significantly upregulate”. Besides, the “ACE2 mRNA expression” value in series [7] (day 28, p=0.038 vs. MCT) is “significantly upregulate”.
Regarding `C[C@H]1C(=O)O[C@@H]2CCN3CC=C(COC(=O)[C@](C)(O)[C@]1(C)O)[C@H]23` [MCT, monocrotaline, reference compound], the “wall thickness (WT) in small pulmonary arteries” value is 33±0.8% in series [1] (day 7, control 19±0.7) and 32.6±0.7% in series [1] (day 28, control 16.8±0.8%). The same compound showed a mortality rate in series [3] of 24%.
